Source: PMC12029898, “Cellular Metabolomics Reveals Differences in the Scope of Liver Protection Between Ammonium-Based Glycyrrhizinate and Magnesium Isoglycyrrhizinate” (Metabolites, 2025)

How the values were obtained:
[1] = tested on: LO2 cells; assay: Cell viability of LO2 cells exposed to APAP (MTT), liver injury model; assay type: cell-based, human
Method: Cell culture and model construction: The experimental LO2 cells were provided by Shanghai Fuheng Biotechnology Co., Ltd. (Shanghai, China). Cells induced by APAP formed a cell model of liver injury. The cells were cultured in RPMI 1640 medium containing 100 units of penicillin, 100 μg/mL streptomycin, and 10% FBS at 37 °C and 5% CO2 atmosphere. The cells were changed daily and passaged when the contact reached 80%. Cells in the logarithmic growth phase were seeded onto a 96-well plate at a density of 4000 cells per well and subsequently incubated at 37 °C in an atmosphere containing 5% CO2. After 24 h of pre-incubation, cells were exposed to APAP at concentrations of 2, 4, 8, and 16 mM, followed by continued culture for the designated time periods. Subsequently, 20 μL of MTT solution (5 mg/mL, dissolved in PBS) was added to each well and incubated for an additional 4 h at 37 °C. To dissolve the formed formazan crystals, 200 μL of DMSO was added. The absorbance values were then measured at 490 nm using a microplate reader ([sequence] 200 PRO, Tecan, Männedorf, Switzerland). The cell survival rates at different APAP concentrations were calculated, and a cell survival rate below 60% was considered indicative of successful model construction. The specific formula employed for calculating the cell survival rate is provided below. […] Cell viability=AAPAP−ABlank/AControl−ABlank

[2] = Pharmacokinetics after oral gavage in rats (plasma, HPLC); assay type: in vivo, Sprague Dawley rats; details: male, Sprague Dawley, rat, po, 20 mg/kg
From the text: Nine male Sprague Dawley rats, each weighing approximately 250 g ± 25 g, were meticulously selected as the experimental subjects (sourced from Beijing SPF Biotechnology Co., Ltd., (Beijing, China) SPF grade, licensed under SCXK (Jing) 2019-0010). The experimental protocol was approved by the Institutional Animal Care and Use Committee of Hebei Medical University and conformed to the Guide for Care and Use of Laboratory Animals (approval NO. 2023040). Prior to and throughout the experimental period, the rats were provided with unrestricted access to standard rodent chow and water. The housing facilities for these animals adhered strictly to the standards outlined by the International Association for the Evaluation and Certification of Laboratory Animal Care, ensuring optimal conditions for the animals’ wellbeing. The experimental feeding environment was maintained at a temperature of 22–24 °C, with a relative humidity of 50 ± 5%, and a 12-h light/dark cycle to mimic natural diurnal rhythms. The rats were randomly allocated into three distinct groups, with an equal distribution of three rats per group. MONO, DIAM, and MAGN were administered orally at a dose of 20 mg/kg. The amount administered was calculated as the contents of glycyrrhizinate or magnesium isoglycyrrhizinate. Each compound was dissolved in 0.5% carboxymethylcellulose sodium (CMC-Na) solution and delivered immediately to rats via gastric gavage. Blood samples of 0.2 mL were obtained at various time points post-administration (0.5, 1, 2, 4, 8, 12, 24, and 48 h) and centrifuged at 1500× g for 10 min at 4 °C, allowing for the separation of plasma, which was collected and stored at −20 °C for subsequent analysis.
Fifty microliters (50 μL) of plasma was obtained and spiked with 10 μL of dipyridamole solution as an internal standard. Subsequently, 100 μL of acetonitrile was added to precipitate the proteins, followed by vortex mixing. The mixture was centrifuged at 6000× g for 10 min at 4 °C. The resulting precipitate was discarded, and the supernatant was evaporated to dryness under a nitrogen stream at 60 °C. The residual precipitate was redissolved in 200 μL of mobile phase, vortexed for 5 min, and sonicated for 30 s. Following this, the solution was centrifuged again at 6000× g for 10 min at 4 °C. Then, 10 μL of the supernatant was injected and the chromatogram was recorded for analysis.
HPLC was employed using the Agilent 1200 series system (Agilent Technologies, Wilmington, DE, USA) with Agilent Chemstation LC B.04.03 Software. The separation was on a Venusil MP C18(2) chromatographic column (150 × 4.6 mm, 5 μm, Agela Technologies, Tianjin, China) based on the United States Pharmacopeia with adjustments performed. Isocratic elution with a mixture of 40 volumes of acetonitrile and 60 volumes of water (containing 0.5% acetic acid) was used. The flow rate and temperature were 1.0 mL/min and 40 °C, respectively. A volume of 10 μL of the sample was injected under 254 nm for analyses and with three repetitions for each test (n = 3). All the pharmacokinetic data were calculated by Drug and Statistics (DAS) 2.0 software (Mathematical Pharmacology Professional Committee of China, Shanghai, China) and presented as mean ± SD. The main parameters such as the area under the curve (AUC), the maximum plasma concentration (Cmax), the time to Cmax (Tmax), and elimination half-life (t1/2) were tabulated.

[3] = tested on: LO2 cells; assay: Hepatocyte protection rate in APAP-induced LO2 cells (MTT); assay type: cell-based, human; details: 16 mM APAP, 200, 400 and 600 μM
Method: Assessment of hepatocyte-protective effects: Cells in the logarithmic growth phase were seeded onto a 96-well plate at a density of 4000 cells per well, followed by incubation at 37 °C in an atmosphere containing 5% CO2. After 24 h of incubation, cells were treated with 16 mM APAP, followed by the addition of MONO, DIAM, and MAGN at three escalating concentrations (200, 400, and 600 μM for each compound). The cell survival rate was quantitatively evaluated using MTT method. The protective efficacy of the compounds was then calculated employing the formula outlined below.(1) Hepatocytes protection rate=AGlycyrrhizinate−AAPAP/Anormal−AAPAP×1

SMILES: CC(=O)Nc1ccc(O)cc1 [APAP, acetaminophen]
- cytotoxicity towards LO2 cells ([1]; APAP 2-16 mM): concentration-dependent cytotoxicity
- cell survival rate ([1]; APAP concentrations exceeding 16 mM, 24 h of APAP exposure): below 60%

SMILES: CC1(C)[C@@H](O[C@H]2O[C@H](C(=O)O)[C@@H](O)[C@H](O)[C@H]2O[C@@H]2O[C@H](C(=O)O)[C@@H](O)[C@H](O)[C@H]2O)CC[C@]2(C)[C@H]3C(=O)C=C4[C@@H]5C[C@@](C)(C(=O)O)CC[C@]5(C)CC[C@@]4(C)[C@]3(C)CC[C@@H]12 [MONO, monoammonium glycyrrhizinate]
- half-life ([2]; n = 3): 10.8 ± 0.66 h
- AUC(0-t) ([2]; n = 3, read-out: AUC0-t): 320 ± 78.6 µg·h/mL
- Cmax ([2]; n = 3, read-out: Cmax): 15000 ± 3640 ng/mL
- Tmax ([2]; n = 3, read-out: Tmax): 8 h
- hepatocyte protection (therapeutic effect) [3]: concentration-dependent therapeutic effects
